Laboratory results as given in patent US9737525B2, “Small molecule activators of NRF2 pathway” (The General Hospital Corporation, priority 2013, dated 2017).

Columns and labels:
[1] = system: Drosophila expressing mutant Htt exon 1; test: Drosophila model of HD, photoreceptor neuron (rhabdomere) survival; type: in vivo; conditions: 10 μM, treated vs. untreated flies, day 7 after eclosion
Procedure: Compound treatment of Drosophila HD model and efficacy analysis of MIND4 effects on photoreceptor neurons was performed as described (Steffan et al., 2001; Pallos et al., 2008). Drosophila models have been important in the genetic identification of pathological and neuroprotective mechanisms as well as for testing therapeutic candidates in HD (Marsh et al., 2003). In wild type flies, seven rhabdomeres (photoreceptor neurons) are visible in the adult eye, whereas chronic expression of mHTTex1 causes progressive degeneration of these neurons, detected as a reduction of rhabdomere number. Rhabdomeres were counted on day 7 after eclosion in animals treated with varying doses of MIND4. The indicated numbers of flies were scored for each condition (n) with the number of ommatidia scored indicated in parentheses. Trial 1: DMSO=11(449); MIND4 1 μM=3(112); MIND4 10 μM=9(337); […]=9(364). […]
MIND4 was tested for its potential efficacy by monitoring the degeneration of photoreceptor neurons in the eyes of Drosophila expressing expanded repeat HTT exon 1 protein in all neurons beginning during embryogenesis (Steffan et al., 2001). […] Chronic expression of mutant HTT causes progressive degeneration of these neurons, detected as a reduction of rhabdomeres number. Rhabdomeres were counted on day 7 after eclosion in animals treated with varying doses of MIND4. […]

[2] = system: ARE genes Nqo1, Hmox1, Gclc; test: qPCR of ARE target genes in corticostriatal co-cultures; type: cell-based, mouse; conditions: 6 hr
Procedure: Primary corticostriatal neuronal co-cultures were prepared from E18 mouse brains as previously described [Kaltenbach, 2010]. Mice were maintained in accordance with Duke University Medical Center Institutional Animal Care and Use Committee guidelines. For 5×-ARE-luciferase reporter assays, neurons were transfected following their isolation (Nucleofector, Lonza) with 2.5 μg Cignal Antioxidant Response Reporter dual luciferase plasmids (Qiagen/SABiosciences) and plated onto pre-established glial beds in 96 well plates. After 4 days in culture at 37° C. under 5% CO2, co-cultures were treated with the indicated compounds for 4 hr or 16 hr then harvested and read for luminescence from firefly and Renilla luciferases according to the Dual Glo luciferase protocol (Promega) using a SpectraMaxL luminometer (Molecular Devices). Each sample was measured in technical triplicate. For quantitative RT-PCR (qPCR) of ARE target genes, corticostriatal co-cultures were prepared as described above and, after 4 days in culture, treated for 6 hr with the indicated compounds followed by RNA harvesting according to the Absolutely RNA miniprep protocol (Agilent Technologies). Purified RNA was converted to cDNA using random hexamers and SuperScript First-Strand RT-PCR Synthesis (Invitrogen). […] Ct values were determined using primer sets against ARE genes Hmox1, Gclc and Nqo1]. […]

## O=[N+]([O-])c1ccc(Sc2nnc(COc3ccccc3)n2-c2ccccc2)c2ncccc12 [MIND4, 5-nitro-8-{[5-(phenoxymethyl)-4-phenyl-4H-1,2,4-triazol-3-yl]thio}quinoline]
[1]
  Relative rescue of photoreceptor neurons, Trial 1: 22.6%
  Relative rescue of photoreceptor neurons, Trial 2: 20.7%

## O=[N+]([O-])c1ccc(Sc2nnc(COc3ccccc3)n2-c2ccccc2)nc1 [MIND4-17]
[2]
  Expression of ARE genes Nqo1, Hmox1: increased the expression of the canonical ARE genes Nqo1, Hmox1
  Expression of Gcic: ~2 fold
